Experimental data reported in patent US10670605B2, “Cysteine reactive probes and uses thereof” (The Scripps Research Institute, priority 2015, dated 2020).

Assays:
Assay in all cases: Competitive isoTOP-ABPP in situ (fragment-treated cells)
Format in all cases: cell-based
[1] = target: T1, cysteines in MDA-MB-231 and Ramos cells (Homo sapiens, UniProt Q6ICB0)
T1 sequence (Q6ICB0 1-168): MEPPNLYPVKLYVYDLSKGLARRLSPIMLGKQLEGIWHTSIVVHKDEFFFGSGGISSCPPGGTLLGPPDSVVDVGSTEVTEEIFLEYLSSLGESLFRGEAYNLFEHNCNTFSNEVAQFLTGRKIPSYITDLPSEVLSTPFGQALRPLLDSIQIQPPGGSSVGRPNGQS

[2] = target: cysteines in MDA-MB-231 and Ramos cells (Homo sapiens, UniProt O75362)
Sequence of cysteines in MDA-MB-231 and Ramos cells (Homo sapiens, UniProt O75362) (O75362 whole entry): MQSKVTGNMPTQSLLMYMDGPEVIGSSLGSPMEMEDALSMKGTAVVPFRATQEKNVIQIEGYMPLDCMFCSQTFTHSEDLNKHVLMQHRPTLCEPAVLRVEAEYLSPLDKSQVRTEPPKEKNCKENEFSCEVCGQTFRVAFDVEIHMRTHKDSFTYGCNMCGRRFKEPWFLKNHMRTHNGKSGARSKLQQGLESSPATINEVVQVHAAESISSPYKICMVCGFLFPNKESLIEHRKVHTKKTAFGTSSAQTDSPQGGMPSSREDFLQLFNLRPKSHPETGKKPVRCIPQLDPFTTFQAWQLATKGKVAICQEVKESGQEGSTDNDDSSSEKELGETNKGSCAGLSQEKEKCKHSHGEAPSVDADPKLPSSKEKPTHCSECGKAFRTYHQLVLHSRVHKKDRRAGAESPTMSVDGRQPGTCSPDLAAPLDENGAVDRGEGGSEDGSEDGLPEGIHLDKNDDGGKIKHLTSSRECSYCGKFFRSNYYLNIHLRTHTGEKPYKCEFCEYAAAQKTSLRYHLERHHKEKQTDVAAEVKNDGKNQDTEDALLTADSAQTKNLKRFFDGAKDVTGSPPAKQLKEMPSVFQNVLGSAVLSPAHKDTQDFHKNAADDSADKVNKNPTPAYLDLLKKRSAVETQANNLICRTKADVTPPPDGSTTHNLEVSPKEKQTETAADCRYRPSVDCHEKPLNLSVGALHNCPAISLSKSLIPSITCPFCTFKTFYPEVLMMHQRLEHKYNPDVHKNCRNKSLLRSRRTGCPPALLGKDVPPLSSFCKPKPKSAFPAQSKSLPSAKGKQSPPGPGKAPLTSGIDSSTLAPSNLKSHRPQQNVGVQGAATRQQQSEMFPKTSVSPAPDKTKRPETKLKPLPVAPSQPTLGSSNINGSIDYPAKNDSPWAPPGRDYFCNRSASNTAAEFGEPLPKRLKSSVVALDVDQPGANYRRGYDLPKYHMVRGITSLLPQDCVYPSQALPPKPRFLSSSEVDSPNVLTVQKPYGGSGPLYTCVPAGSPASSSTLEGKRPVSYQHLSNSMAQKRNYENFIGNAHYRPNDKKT

[3] = target: T2, cysteines in MDA-MB-231 and Ramos cells (Homo sapiens, UniProt Q07065)
T2 sequence (Q07065 1-602): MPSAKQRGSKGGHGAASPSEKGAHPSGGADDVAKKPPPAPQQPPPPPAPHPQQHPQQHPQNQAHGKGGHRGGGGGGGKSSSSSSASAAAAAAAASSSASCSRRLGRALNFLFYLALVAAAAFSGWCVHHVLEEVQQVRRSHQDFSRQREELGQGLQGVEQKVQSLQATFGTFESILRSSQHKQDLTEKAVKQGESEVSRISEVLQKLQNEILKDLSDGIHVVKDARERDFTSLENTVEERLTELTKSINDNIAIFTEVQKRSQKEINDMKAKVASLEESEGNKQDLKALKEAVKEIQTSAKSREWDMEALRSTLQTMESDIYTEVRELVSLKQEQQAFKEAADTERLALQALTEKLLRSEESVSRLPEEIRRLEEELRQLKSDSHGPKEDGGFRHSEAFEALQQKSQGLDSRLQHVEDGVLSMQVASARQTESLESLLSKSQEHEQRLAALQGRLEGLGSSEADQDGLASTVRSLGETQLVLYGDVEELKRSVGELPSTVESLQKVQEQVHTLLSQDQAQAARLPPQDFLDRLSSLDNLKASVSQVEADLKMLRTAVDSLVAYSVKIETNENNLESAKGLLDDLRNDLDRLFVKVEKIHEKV

[4] = target: T3, cysteines in MDA-MB-231 and Ramos cells (Homo sapiens, UniProt Q8NFH5)
T3 sequence (Q8NFH5 1-326): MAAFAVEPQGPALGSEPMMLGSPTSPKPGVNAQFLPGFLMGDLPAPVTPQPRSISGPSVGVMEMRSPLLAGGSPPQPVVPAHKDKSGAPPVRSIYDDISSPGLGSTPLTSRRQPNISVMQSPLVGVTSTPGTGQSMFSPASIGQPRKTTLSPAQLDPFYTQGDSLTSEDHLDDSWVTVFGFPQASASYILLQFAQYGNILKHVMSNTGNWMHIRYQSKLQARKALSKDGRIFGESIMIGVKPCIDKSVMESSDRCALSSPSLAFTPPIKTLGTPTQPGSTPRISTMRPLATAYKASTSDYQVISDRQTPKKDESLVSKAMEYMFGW

[5] = target: T4, cysteines in MDA-MB-231 and Ramos cells (Homo sapiens, UniProt O00244)
T4 sequence (O00244 1-68): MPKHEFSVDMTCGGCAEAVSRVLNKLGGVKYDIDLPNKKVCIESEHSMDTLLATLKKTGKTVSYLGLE

[6] = target: T5, cysteines in MDA-MB-231 and Ramos cells (Homo sapiens, UniProt Q9Y679)
T5 sequence (Q9Y679 1-410): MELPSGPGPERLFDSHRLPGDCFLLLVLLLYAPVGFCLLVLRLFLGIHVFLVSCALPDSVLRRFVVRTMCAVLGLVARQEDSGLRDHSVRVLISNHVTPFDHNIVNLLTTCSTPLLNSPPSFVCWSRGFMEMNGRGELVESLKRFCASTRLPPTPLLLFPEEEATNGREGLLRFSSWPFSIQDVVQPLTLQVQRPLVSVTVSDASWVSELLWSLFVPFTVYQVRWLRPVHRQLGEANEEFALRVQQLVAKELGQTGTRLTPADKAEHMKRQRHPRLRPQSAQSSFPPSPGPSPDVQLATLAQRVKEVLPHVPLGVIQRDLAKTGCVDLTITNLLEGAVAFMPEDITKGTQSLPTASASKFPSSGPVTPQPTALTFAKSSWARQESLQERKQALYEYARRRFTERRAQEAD

[7] = target: T6, cysteines in MDA-MB-231 and Ramos cells (Homo sapiens, UniProt Q15398)
T6 sequence (Q15398 1-846): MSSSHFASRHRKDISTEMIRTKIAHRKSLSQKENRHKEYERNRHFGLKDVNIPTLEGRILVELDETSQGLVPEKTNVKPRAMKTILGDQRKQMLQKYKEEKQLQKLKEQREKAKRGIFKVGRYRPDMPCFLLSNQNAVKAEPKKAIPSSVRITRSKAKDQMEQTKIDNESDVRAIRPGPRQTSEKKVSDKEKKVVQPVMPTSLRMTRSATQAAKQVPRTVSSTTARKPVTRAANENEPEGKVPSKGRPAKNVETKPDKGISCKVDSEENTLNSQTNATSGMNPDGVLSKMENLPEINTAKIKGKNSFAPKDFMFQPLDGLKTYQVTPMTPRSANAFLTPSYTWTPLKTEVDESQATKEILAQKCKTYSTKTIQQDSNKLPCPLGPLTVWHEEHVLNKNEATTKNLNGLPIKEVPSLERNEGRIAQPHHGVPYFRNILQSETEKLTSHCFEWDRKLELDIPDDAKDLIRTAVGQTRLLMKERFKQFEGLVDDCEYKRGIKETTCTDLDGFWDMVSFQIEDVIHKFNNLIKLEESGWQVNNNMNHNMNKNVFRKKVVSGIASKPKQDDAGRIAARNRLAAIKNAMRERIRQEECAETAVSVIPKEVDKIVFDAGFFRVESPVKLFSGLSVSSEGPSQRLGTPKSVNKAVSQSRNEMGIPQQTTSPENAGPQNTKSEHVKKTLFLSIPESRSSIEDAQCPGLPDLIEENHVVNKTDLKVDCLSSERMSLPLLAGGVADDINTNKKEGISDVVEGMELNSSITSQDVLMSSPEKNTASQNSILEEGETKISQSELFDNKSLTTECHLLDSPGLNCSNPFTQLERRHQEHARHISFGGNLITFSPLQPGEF

[8] = target: cysteines in MDA-MB-231 and Ramos cells (Homo sapiens, UniProt P14635)
Sequence of cysteines in MDA-MB-231 and Ramos cells (Homo sapiens, UniProt P14635) (P14635 whole entry): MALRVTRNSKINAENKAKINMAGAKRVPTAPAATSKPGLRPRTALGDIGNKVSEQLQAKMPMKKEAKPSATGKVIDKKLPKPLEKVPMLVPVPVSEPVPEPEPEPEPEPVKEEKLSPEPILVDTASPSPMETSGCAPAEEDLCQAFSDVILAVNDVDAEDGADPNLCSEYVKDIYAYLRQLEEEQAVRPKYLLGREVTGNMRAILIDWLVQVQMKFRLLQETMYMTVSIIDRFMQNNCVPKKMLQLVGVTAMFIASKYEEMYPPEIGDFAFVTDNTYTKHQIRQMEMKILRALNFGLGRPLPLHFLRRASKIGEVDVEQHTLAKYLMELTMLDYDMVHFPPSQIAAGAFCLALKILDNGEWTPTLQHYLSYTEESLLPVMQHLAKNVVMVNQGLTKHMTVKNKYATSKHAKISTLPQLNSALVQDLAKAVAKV

[9] = target: cysteines in MDA-MB-231 and Ramos cells (Homo sapiens, UniProt Q9BRJ7); conditions: 200 μM, insitu, 231
Sequence of cysteines in MDA-MB-231 and Ramos cells (Homo sapiens, UniProt Q9BRJ7) (Q9BRJ7 whole entry): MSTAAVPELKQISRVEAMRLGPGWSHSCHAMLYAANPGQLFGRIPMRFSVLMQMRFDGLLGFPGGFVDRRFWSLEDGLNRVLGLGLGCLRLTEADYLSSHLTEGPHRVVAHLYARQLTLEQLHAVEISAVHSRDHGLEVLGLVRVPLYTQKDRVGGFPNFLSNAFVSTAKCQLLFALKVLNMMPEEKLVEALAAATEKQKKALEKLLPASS

[10] = target: cysteines in MDA-MB-231 and Ramos cells (Homo sapiens, UniProt O60825); conditions: 200 μM, insitu
Sequence of cysteines in MDA-MB-231 and Ramos cells (Homo sapiens, UniProt O60825) (O60825 whole entry): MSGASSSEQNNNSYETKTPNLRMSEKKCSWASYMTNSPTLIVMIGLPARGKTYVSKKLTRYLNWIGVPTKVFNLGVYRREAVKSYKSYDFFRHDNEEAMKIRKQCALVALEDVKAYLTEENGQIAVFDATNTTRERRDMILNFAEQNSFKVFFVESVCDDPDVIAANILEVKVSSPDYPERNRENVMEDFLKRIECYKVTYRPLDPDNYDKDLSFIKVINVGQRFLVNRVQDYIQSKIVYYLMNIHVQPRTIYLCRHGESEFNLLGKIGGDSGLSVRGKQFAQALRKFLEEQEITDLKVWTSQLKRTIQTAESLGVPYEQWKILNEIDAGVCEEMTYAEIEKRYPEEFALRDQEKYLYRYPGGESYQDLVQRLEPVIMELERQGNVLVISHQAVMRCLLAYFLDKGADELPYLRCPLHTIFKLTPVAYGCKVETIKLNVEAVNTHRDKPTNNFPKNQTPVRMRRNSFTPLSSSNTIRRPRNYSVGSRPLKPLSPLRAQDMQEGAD

Cn1cc(S(=O)(=O)N2CCOCC2)cc1C(=O)NC(=O)CCl [compound 11]
isoTOP-ABPP ratio Q6ICB0_C108 ([1]; 100 μM in situ 231): 0.7 | isoTOP-ABPP ratio O75362_C286 ([2]; 100 μM in situ 231): 1.0 | isoTOP-ABPP ratio, cysteine Q07065_C100 ([3]; 100 μM in situ 231): 1.0 | isoTOP-ABPP ratio Q8NFH5_C255 ([4]; 100 μM in situ 231): 1.3 | isoTOP-ABPP ratio, cysteine O00244_C12 ([5]; 100 μM in situ 231): 0.7 | isoTOP-ABPP ratio, cysteine Q9Y679_C391 ([6]; 100 μM in situ 231): 3.0 | isoTOP-ABPP ratio, cysteine Q15398_C129 ([7]; 100 μM in situ 231): 0.6 | isoTOP-ABPP ratio, cysteine P14635_C238 ([8]; 100 μM in situ 231): 0.7

C=CC(=O)Nc1cc(F)c(N2CCN(C(=O)OC(C)(C)C)CC2)c(F)c1 [compound 38]
isoTOP-ABPP ratio Q6ICB0_C108 ([1]; 200 μM, insitu, 231): 1.1 | isoTOP-ABPP ratio Q8NFH5_C255 ([4]; 200 μM, insitu, 231): 1.1 | isoTOP-ABPP ratio Q9BRJ7_C88 [9]: 0.4 | isoTOP-ABPP ratio Q15398_C129 ([7]; 200 μM, insitu, 231): 1.4 | isoTOP-ABPP ratio P14635_C238 ([8]; 200 μM, insitu, 231): 1.8

CC1CCc2ccccc2N1C(=O)CCl (stereo not drawn) [compound 45]
isoTOP-ABPP ratio Q6ICB0_C108 ([1]; 200 μM, insitu, 231): 3.1 | isoTOP-ABPP ratio O60825_C158 [10]; 231: 1.3 | isoTOP-ABPP ratio O75362_C286 ([2]; 200 μM, insitu, 231): 20.0 | isoTOP-ABPP ratio Q07065_C100 ([3]; 200 μM, insitu, 231): 20.0 | isoTOP-ABPP ratio Q8NFH5_C255 ([4]; 200 μM, insitu, 231): 5.5 | isoTOP-ABPP ratio Q9BRJ7_C88 [9]: 1.6 | isoTOP-ABPP ratio Q9Y679_C391 ([6]; 200 μM, insitu, 231): 20.0

COc1ccc2c(c1)CCCN2C(=O)CCl [compound 2]
isoTOP-ABPP reactivity Q6ICB0_C108 DESII ([1]; 200 μM, insitu, 231): 20.0 | isoTOP-ABPP reactivity O60825_C158 PFKFB2 [10]; 231: 0.7 | isoTOP-ABPP reactivity O75362_C286 ZNF217 ([2]; 200 μM, insitu, 231): 8.9 | isoTOP-ABPP reactivity Q8NFH5_C255 NUP35 ([4]; 200 μM, insitu, 231): 5.1 | isoTOP-ABPP reactivity Q9BRJ7_C88 NUDT16L1 [9]: 20.0 | isoTOP-ABPP reactivity Q15398_C129 DLGAP5 ([7]; 200 μM, insitu, 231): 20.0

COc1cc2c(cc1OC)CN(C(=O)CCl)CC2 [compound 8]
isoTOP-ABPP reactivity Q6ICB0_C108 DESII ([1]; 200 μM, insitu, 231): 20.0 | isoTOP-ABPP reactivity Q9Y679_C391 AUP1 ([6]; 200 μM, insitu, 231): 20.0

CC(C)CCOCCNC(=O)CCl [compound 27]
isoTOP-ABPP ratio Q6ICB0_C108 ([1]; 200 μM, insitu, 231): 1.9 | isoTOP-ABPP ratio O75362_C286 ([2]; 200 μM, insitu, 231): 1.0 | isoTOP-ABPP ratio O00244_C12 ([5]; 200 μM, insitu, 231): 0.4 | isoTOP-ABPP ratio Q9Y679_C391 ([6]; 200 μM, insitu, 231): 1.2 | isoTOP-ABPP ratio Q15398_C129 ([7]; 200 μM, insitu, 231): 0.5

O=C(CCl)N1CCN(S(=O)(=O)c2ccccc2F)CC1 [compound 10]
isoTOP-ABPP ratio O60825_C158 [10]; 231: 0.7 | isoTOP-ABPP ratio O60825_C158 ([10]; ramos): 1.2 | isoTOP-ABPP ratio O75362_C286 ([2]; 200 μM, insitu, 231): 2.6 | isoTOP-ABPP ratio Q8NFH5_C255 ([4]; 200 μM, insitu, 231): 3.5 | isoTOP-ABPP ratio, cysteine Q9BRJ7_C88 [9]: 20.0 | isoTOP-ABPP ratio, cysteine O00244_C12 ([5]; 200 μM, insitu, 231): 2.1 | isoTOP-ABPP ratio, cysteine P14635_C238 ([8]; 200 μM, insitu, 231): 6.7

O=C(CCl)N1CCN(CC(=O)N2CCOCC2)CC1 [compound 29]
isoTOP-ABPP ratio Q6ICB0_C108 ([1]; 200 μM, insitu, ramos): 1.0 | isoTOP-ABPP ratio O60825_C158 ([10]; ramos): 0.9 | isoTOP-ABPP ratio O75362_C286 ([2]; 200 μM, insitu, ramos): 1.0 | isoTOP-ABPP ratio Q8NFH5_C255 ([4]; 200 μM, insitu, ramos): 1.6 | isoTOP-ABPP ratio O00244_C12 ([5]; 200 μM, insitu, ramos): 1.4 | isoTOP-ABPP ratio Q15398_C129 ([7]; 200 μM, insitu, ramos): 1.2

C=CC(=O)N(Cc1cccnc1)c1cc(C(F)(F)F)cc(C(F)(F)F)c1 [compound 31]
isoTOP-ABPP ratio Q6ICB0_C108 ([1]; 200 μM, insitu, 231): 1.2 | isoTOP-ABPP ratio Q6ICB0_C108 ([1]; 200 μM, insitu, ramos): 1.3 | isoTOP-ABPP ratio O60825_C158 ([10]; ramos): 1,3 | isoTOP-ABPP ratio Q9BRJ7_C88 [9]: 2.9 | isoTOP-ABPP ratio Q15398_C129 ([7]; 200 μM, insitu, ramos): 2.4
